Source: patent publication US20100105636A1, “T-TYPE CALCIUM CHANNEL BLOCKER” (Nissan Chemical Industries, Ltd., priority 2003, published 2010)

Assays:
Assay type in all cases: cell-based
T-type Ca channel (α1G) [1] = molecular target: T1, T-type Ca channel (α1G) (Homo sapiens, UniProt O43497); experiment: Effect on T-type Ca channel expressed in BHK cells (whole cell patch clamp), Pharmacological Test Example 2; conditions: BHK cells expressing T-type Ca channel (α1G), depolarization pulse −20 mV from −80 mV, 5 minutes after application, average value vs vehicle control (100%), read-out: Inhibition (%) of Ca current, T-type
T1 construct: expressed in transfected cells; host or cells: BHK (baby hamster kidney) cells
Protocol: (§1) Effect on L-Type and T-Type Ca Channel Expressed in Mammalian Cells (BHK Cells)
(§2) An electrophysiological evaluation was carried out by use of BHK (baby hamster kidney) cells in which L-type Ca channel or T-type Ca channel (α1G) was expressed according to the method of Wakamori M et al. (Wakamori M et al.: J Biol Chem 273, 34857-34867, 1998) based on the whole cell patch clamp method. Each Ca-ion current was measured through a patch clamp amplifier as an inward current when depolarization pulse (10 mV in L-type Ca channel, −20 mV in T-type Ca channel) was applied to cells maintained at a membrane potential of −80 mV. Compound (9) was dissolved in extracellular solution and applied with perfusion. At 5 minutes after the application, any variation in Ca-ion current was measured. The results are shown in Table 2 as Ca current inhibition (%, average value) of the compound of the present invention to Ca current (100%) in vehicle control.

L-type Ca channel = experiment: Effect on L-type Ca channel expressed in BHK cells (whole cell patch clamp), Pharmacological Test Example 2; conditions: 10 μM; BHK cells expressing L-type Ca channel; depolarization pulse 10 mV from −80 mV; 5 minutes after application; average value vs vehicle control (100%)
Protocol: as §1, §2

T-type Ca channel (α1G) [2] = molecular target: T1, T-type Ca channel (α1G); experiment: Effect on T-type Ca channel expressed in BHK cells (whole cell patch clamp), Pharmacological Test Example 1; conditions: BHK cells expressing T-type Ca channel (α1G), depolarization pulse −20 mV from −80 mV, 5 minutes after application, average value vs vehicle control (100%), read-out: Inhibition (%) of Ca current
Protocol: Effect on T-Type Ca Channel Expressed in Mammalian Cells (BHK Cells)
as §2, with “which” for “which L-type Ca channel or”, “pulse (−20 mV)” for “pulse (10 mV in L-type Ca channel, −20 mV in T-type Ca channel)”, “mV. Each compound” for “mV. Compound (9)”, “Table 1” for “Table 2”

T1 sequence (O43497 whole entry): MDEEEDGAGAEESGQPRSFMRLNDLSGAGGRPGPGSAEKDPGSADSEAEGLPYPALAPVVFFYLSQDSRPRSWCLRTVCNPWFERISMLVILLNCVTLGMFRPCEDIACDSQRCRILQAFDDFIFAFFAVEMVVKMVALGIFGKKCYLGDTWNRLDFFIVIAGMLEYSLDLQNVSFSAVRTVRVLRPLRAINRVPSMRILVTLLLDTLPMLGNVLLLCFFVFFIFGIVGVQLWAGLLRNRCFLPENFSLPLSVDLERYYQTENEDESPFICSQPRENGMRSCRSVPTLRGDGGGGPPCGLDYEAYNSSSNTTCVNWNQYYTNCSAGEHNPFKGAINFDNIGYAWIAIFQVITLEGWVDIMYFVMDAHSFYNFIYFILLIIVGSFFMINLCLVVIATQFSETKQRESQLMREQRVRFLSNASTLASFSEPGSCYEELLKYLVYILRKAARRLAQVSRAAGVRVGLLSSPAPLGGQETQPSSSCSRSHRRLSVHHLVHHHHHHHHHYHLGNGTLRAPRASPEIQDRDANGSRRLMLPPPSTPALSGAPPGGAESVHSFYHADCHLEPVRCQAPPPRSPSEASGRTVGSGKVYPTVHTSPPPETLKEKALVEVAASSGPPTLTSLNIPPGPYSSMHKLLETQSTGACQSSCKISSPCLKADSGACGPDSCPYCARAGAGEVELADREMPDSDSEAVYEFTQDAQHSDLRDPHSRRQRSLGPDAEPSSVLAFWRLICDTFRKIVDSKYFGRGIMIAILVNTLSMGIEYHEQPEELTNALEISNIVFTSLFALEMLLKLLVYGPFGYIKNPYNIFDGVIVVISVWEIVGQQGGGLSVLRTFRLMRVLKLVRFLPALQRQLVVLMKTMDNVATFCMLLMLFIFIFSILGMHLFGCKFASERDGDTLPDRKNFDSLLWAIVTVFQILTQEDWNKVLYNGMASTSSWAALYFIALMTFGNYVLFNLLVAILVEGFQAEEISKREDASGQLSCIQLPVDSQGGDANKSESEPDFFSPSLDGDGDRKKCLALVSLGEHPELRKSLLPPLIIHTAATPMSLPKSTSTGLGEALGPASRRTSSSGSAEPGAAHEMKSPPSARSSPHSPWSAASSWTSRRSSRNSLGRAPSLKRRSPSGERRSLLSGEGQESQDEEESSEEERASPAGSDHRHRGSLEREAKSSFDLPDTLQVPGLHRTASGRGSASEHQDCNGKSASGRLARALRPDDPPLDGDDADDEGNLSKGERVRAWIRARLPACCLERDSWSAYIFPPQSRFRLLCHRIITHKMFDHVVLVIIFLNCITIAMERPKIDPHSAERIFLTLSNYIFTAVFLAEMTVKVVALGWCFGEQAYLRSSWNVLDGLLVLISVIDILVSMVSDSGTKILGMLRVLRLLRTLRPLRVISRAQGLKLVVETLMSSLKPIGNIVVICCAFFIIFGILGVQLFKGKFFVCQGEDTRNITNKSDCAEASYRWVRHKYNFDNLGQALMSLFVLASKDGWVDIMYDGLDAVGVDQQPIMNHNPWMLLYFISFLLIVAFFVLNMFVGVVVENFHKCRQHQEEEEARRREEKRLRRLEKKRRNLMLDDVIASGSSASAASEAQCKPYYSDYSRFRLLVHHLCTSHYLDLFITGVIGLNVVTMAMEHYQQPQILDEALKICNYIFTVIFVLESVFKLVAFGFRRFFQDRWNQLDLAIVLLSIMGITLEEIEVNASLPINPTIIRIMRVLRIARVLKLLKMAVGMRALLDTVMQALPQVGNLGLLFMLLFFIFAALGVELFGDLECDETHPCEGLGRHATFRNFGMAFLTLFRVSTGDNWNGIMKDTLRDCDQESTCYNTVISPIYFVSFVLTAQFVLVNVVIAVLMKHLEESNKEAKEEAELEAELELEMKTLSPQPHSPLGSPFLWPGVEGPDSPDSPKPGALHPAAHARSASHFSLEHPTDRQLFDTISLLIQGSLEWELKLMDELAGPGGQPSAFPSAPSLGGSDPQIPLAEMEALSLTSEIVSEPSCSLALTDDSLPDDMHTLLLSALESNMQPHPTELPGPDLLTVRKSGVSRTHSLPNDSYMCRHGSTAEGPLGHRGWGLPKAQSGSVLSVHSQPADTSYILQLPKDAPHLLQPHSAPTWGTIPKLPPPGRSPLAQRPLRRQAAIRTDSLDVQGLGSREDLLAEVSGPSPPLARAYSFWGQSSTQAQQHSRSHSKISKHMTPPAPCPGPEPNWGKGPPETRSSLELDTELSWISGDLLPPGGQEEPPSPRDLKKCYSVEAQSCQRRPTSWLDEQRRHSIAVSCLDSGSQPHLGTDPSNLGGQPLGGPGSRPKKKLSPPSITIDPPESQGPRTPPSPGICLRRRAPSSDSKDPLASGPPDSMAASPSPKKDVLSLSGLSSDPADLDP

| SMILES | inhibition at 10 µM (T-type Ca channel (α1G) [1]) | inhibition at 10 µM (T-type Ca channel (α1G) [2]) | Inhibition (%) of Ca current, L-type (L-type Ca channel) |
| --- | --- | --- | --- |
| CC1=C(C(=O)OCCN(Cc2ccccc2)c2ccccc2)C(c2cccc([N+](=O)[O-])c2)C(P2(=O)OCC(C)(C)CO2)=C(C)N1CCN1CCOCC1 (stereo not shown) [Compound (9)] | 48.9% |  | 9.9% |
| Cc1nc(C)c(P2(=O)OCC(C)(C)CO2)c(-c2cccc([N+](=O)[O-])c2)c1C(=O)OCCN(Cc1ccccc1)c1ccccc1 [Compound (4)] |  | 23.9% |  |
| Cc1nc(C)c(P2(=O)OCC(C)(C)CO2)c(-c2cccc([N+](=O)[O-])c2)c1C(=O)OCCNc1ccccc1 [Compound (5)] |  | 53.9% |  |

Continued, in another order:

| inhibition at 10 µM (T-type Ca channel (α1G) [1]) | inhibition at 10 µM (T-type Ca channel (α1G) [2]) | SMILES | Inhibition (%) of Ca current, L-type (L-type Ca channel) |
| --- | --- | --- | --- |
|  | 45.8% | COC(=O)c1c(C)nc(C)c(C(=O)OC2CCCN(Cc3ccccc3)C2)c1-c1cccc([N+](=O)[O-])c1 (stereo not shown) [Compound (7)] |  |
|  | 43.6% | Cc1nc(C)c(P2(=O)OCC(C)(C)CO2)c(-c2cccc([N+](=O)[O-])c2)c1C(=O)OCCN1CCN(C(c2ccccc2)c2ccccc2)CC1 [Compound (6)] |  |
|  | 30% | COC(=O)C1=C(C)N(C)C(C)=C(C(=O)OC2CCCN(Cc3ccccc3)C2)C1c1cccc([N+](=O)[O-])c1 (stereo not shown) [Compound (8)] |  |
